# Source: patent publication US4230702A, “Readily enterally absorbable pharmaceutical compositions of per se poorly enterally absorbable pharmacologically active agents” (priority 1978, dated 1980)
# Where two headings read alike, the source gives them in different places.
# Columns and labels:
# [1] = Renal excretion of benzarone, comparison of areas beneath the curves; format: in vivo, rat; conditions: 1000 mg/kg oral, rats, solution in Rilanit GMO compared with aqueous suspension, 15 hours
# Method: Furthermore doses of 1000 mg/kg of benzarone in the form of a solution in Rilanit GMO^4) and in form of a suspension in water are orally administered to rats by means of an oral feeding tube. The urine of the animals is collected every 2 hours over a period of 15 hours and the amount of the excreted benzarone therein is determined spectrophotometrically. The measured values are plotted on a graph and the areas beneath the resulting curves are compared.
# [2] = Blood (serum) level of benzarone, comparison of areas beneath the blood level curves; format: in vivo, rat; conditions: 1000 mg/kg oral, rats, solution in Rilanit GMO compared with aqueous suspension, up to 15 hours
# Method: For determining the blood level values, a dose of 1000 mg/kg of benzarone in form of a solution in Rilanit GMO^4) and in form of a suspension in water are administered to rats by means of an oral feeding tube.
# Subsequently every two hours including the 10th hour, 8 animals of each group, and after 15 hours, 4 more animals of each group are sacrificed and their blood is recovered by means of a cordial cut. The amount of benzarone in the serum is determined spectrophotometrically. The measured blood level values are plotted on a graph and the areas beneath the resulting blood level curves are compared.
# [3] = Oral toxicity (LD50) of solutions in partial glycerides versus suspension in aqueous tylose; conditions: guinea pig, in vivo, female guinea pigs
# Method: For testing the toxicity, solutions of g-strophanthin, proscillaridin A or medrogestone in various mixtures of mono-and diglycerides of long chain fatty acids and comparative formulations of the same pharmacologically active agents suspended in a tylose solution in water are administered orally to female guinea pigs of 250 to 300 g body weight by means of an oral feeding tube.
# [4] = Renal excretion of carbon-14 labelled progesterone, cumulative urinary 14C; format: in vivo, guinea pig; conditions: 20 mg/kg oral; for Cumulative Renal Excretion of Progesterone: guinea pigs
# Method: For determining the renal excretion, a dose of 20 mg/kg of carbon-14 labelled progesterone in the form of solutions in various mixtures of partial glycerides of long chain fatty acids and a comparative formulation wherein the progesterone is suspended in an aqueous tylose solution are administered orally to female guinea pigs having an average body weight of about 300 g. The urine of the animals is collected every 24 hours and the ^14 C-content in equal amounts of the urine is determined. The cumulated amount of excreted material is shown in Table II below in % of the administered dose. The percentage of excreted material is about 83% for the solution of progesterone in Peceol.
# [5] = solution in Peceol (mono, di, and triglycerides of oleic acid), read-out: LD50 in Peceol
# [6] = solution in Witafrol 7470 (mono- and diglycerides of oleic acid), read-out: LD50 in Witafrol 7470
# [7] = suspended in tylose (methylcellulose) solution in water, read-out: LD50 in Tylose
smiles,measurement,setting,value
"CCc1oc2ccccc2c1C(=O)c1ccc(O)cc1 [benzarone, 2-ethyl-3-(4-hydroxybenzoyl)benzofuran]",increase of the renal excretion of benzarone (comparison of areas beneath the curves),[1],437%
same,increase of the concentration of benzarone in the serum (comparison of areas beneath blood level curves),[2],257%
CC1OC(OC2CC(O)C3(CO)C4C(O)CC5(C)C(C6=CC(=O)OC6)CCC5(O)C4CCC3(O)C2)C(O)C(O)C1O (stereo not shown) [g-strophanthin],LD50,[3]; [5],8.38 mg/kg
same,LD50,[3]; [6],8.28 mg/kg
same,LD50,[3]; [7],34.8 mg/kg
CC(=O)[C@@]1(C)CC[C@H]2[C@@H]3C=C(C)C4=CC(=O)CC[C@]4(C)[C@H]3CC[C@@]21C [medrogestone],LD50,[3]; [5],850 mg/kg
same,LD50,"[3]; solution in Rilanit GMO (mono- and diglycerides of oleic acid), read-out: LD50 in Rilanit GMO",862 mg/kg
same,LD50,[3]; [7],1470 mg/kg
CC(=O)[C@H]1CC[C@H]2[C@@H]3CCC4=CC(=O)CC[C@]4(C)[C@H]3CC[C@]12C [progesterone],percentage of excreted material,"[4]; female guinea pigs, 14C-progesterone, solution in Peceol, % of the administered dose",about 83%
same,amount of excreted material relative to the suspension in the tylose solution,"[4]; female guinea pigs, solution in Peceol versus tylose suspension",about twice as high
same,Cumulative Renal Excretion of Progesterone,"[4]; Peceol X1, 1. day",46.0 % of the Administered Dose
same,Cumulative Renal Excretion of Progesterone,"[4]; Peceol X1, 2. day",64.6 % of the Administered Dose
same,Cumulative Renal Excretion of Progesterone,"[4]; Peceol X1, 3. day",71.6 % of the Administered Dose
same,Cumulative Renal Excretion of Progesterone,"[4]; Peceol X1, 4. day",76.1 % of the Administered Dose
same,Cumulative Renal Excretion of Progesterone,"[4]; Peceol X1, 5. day",79.1 % of the Administered Dose
same,Cumulative Renal Excretion of Progesterone,"[4]; Peceol X1, 6. day",81.1 % of the Administered Dose
same,Cumulative Renal Excretion of Progesterone,"[4]; Peceol X1, 7. day",82.9 % of the Administered Dose
same,Cumulative Renal Excretion of Progesterone,"[4]; Softigen 701, 1. day",51.6 % of the Administered Dose
same,Cumulative Renal Excretion of Progesterone,"[4]; Softigen 701, 2. day",63.2 % of the Administered Dose
same,Cumulative Renal Excretion of Progesterone,"[4]; Softigen 701, 3. day",66.2 % of the Administered Dose
same,Cumulative Renal Excretion of Progesterone,"[4]; Softigen 701, 4. day",66.9 % of the Administered Dose
same,Cumulative Renal Excretion of Progesterone,"[4]; Softigen 701, 5. day",67.4 % of the Administered Dose
same,Cumulative Renal Excretion of Progesterone,"[4]; Softigen 701, 6. day",67.6 % of the Administered Dose
same,Cumulative Renal Excretion of Progesterone,"[4]; Softigen 701, 7. day",67.7 % of the Administered Dose
same,Cumulative Renal Excretion of Progesterone,"[4]; Tegin 0, 1. day",37.9 % of the Administered Dose
same,Cumulative Renal Excretion of Progesterone,"[4]; Tegin 0, 2. day",48.7 % of the Administered Dose
same,Cumulative Renal Excretion of Progesterone,"[4]; Tegin 0, 3. day",51.6 % of the Administered Dose
same,Cumulative Renal Excretion of Progesterone,"[4]; Tegin 0, 4. day",52.3 % of the Administered Dose
same,Cumulative Renal Excretion of Progesterone,"[4]; Tegin 0, 5. day",52.6 % of the Administered Dose
same,Cumulative Renal Excretion of Progesterone,"[4]; Tegin 0, 6. day",52.8 % of the Administered Dose
same,Cumulative Renal Excretion of Progesterone,"[4]; Tegin 0, 7. day",52.9 % of the Administered Dose
same,Cumulative Renal Excretion of Progesterone,"[4]; Tegomuls X10, 1. day",42.5 % of the Administered Dose
same,Cumulative Renal Excretion of Progesterone,"[4]; Tegomuls X10, 2. day",58.3 % of the Administered Dose
same,Cumulative Renal Excretion of Progesterone,"[4]; Tegomuls X10, 3. day",69.2 % of the Administered Dose
same,Cumulative Renal Excretion of Progesterone,"[4]; Tegomuls X10, 4. day",75.2 % of the Administered Dose
same,Cumulative Renal Excretion of Progesterone,"[4]; Tegomuls X10, 5. day",78.8 % of the Administered Dose
same,Cumulative Renal Excretion of Progesterone,"[4]; Tegomuls X10, 6. day",80.6 % of the Administered Dose
same,Cumulative Renal Excretion of Progesterone,"[4]; Tegomuls X10, 7. day",81.9 % of the Administered Dose
same,Cumulative Renal Excretion of Progesterone,"[4]; Tegomuls X17, 1. day",43.7 % of the Administered Dose
same,Cumulative Renal Excretion of Progesterone,"[4]; Tegomuls X17, 2. day",55.0 % of the Administered Dose
same,Cumulative Renal Excretion of Progesterone,"[4]; Tegomuls X17, 3. day",62.0 % of the Administered Dose
same,Cumulative Renal Excretion of Progesterone,"[4]; Tegomuls X17, 4. day",66.6 % of the Administered Dose
same,Cumulative Renal Excretion of Progesterone,"[4]; Tegomuls X17, 5. day",70.0 % of the Administered Dose
same,Cumulative Renal Excretion of Progesterone,"[4]; Tegomuls X17, 6. day",71.9 % of the Administered Dose
same,Cumulative Renal Excretion of Progesterone,"[4]; Tegomuls X17, 7. day",73.9 % of the Administered Dose
same,Cumulative Renal Excretion of Progesterone,"[4]; Tylose, 1. day",29.7 % of the Administered Dose
same,Cumulative Renal Excretion of Progesterone,"[4]; Tylose, 2. day",39.1 % of the Administered Dose
same,Cumulative Renal Excretion of Progesterone,"[4]; Tylose, 3. day",43.0 % of the Administered Dose
same,Cumulative Renal Excretion of Progesterone,"[4]; Tylose, 4. day",44.0 % of the Administered Dose
same,Cumulative Renal Excretion of Progesterone,"[4]; Tylose, 5. day",44.5 % of the Administered Dose
same,Cumulative Renal Excretion of Progesterone,"[4]; Tylose, 6. day",46.2 % of the Administered Dose
same,Cumulative Renal Excretion of Progesterone,"[4]; Tylose, 7. day",46.4 % of the Administered Dose
C[C@@H]1O[C@@H](O[C@@H]2C=C3CC[C@@H]4[C@H](CC[C@]5(C)[C@@H](c6ccc(=O)oc6)CC[C@]45O)[C@@]3(C)CC2)[C@H](O)[C@H](O)[C@H]1O [proscillaridin A],LD50,[3]; [5],7.77 mg/kg
same,LD50,[3]; [6],6.81 mg/kg
same,LD50,[3]; [7],12.3 mg/kg
